In patent publication US20260069596A1 (Cardiff Oncology, Inc., priority 2024, published 2026):
“Also recorded” adds a separate entry of the source.

What was measured:
[1] = tested on: advanced/metastatic solid tumors; conditions: single agent; cited from earlier work
[2] = tested on: RAS^WT colorectal cancer patient derived xenograft (PDX) models; assay: Example 2: antitumor activity in RAS^WT colorectal cancer PDX models; assay type: in vivo, mice
Description: Tumor volumes (TV) were measured twice a week, and % tumor volume change (TVC) from baseline was calculated as follows: (TVi/TV0−1)×100. Tumor stasis defined as TVC between 0 and 20%, and tumor regression as TVC less than 0% at last measurement. Results are presented as mean±SEM.

[3] = cited from earlier work
CYP1A2 = target: T1, CYP1A2 (Homo sapiens, UniProt P05177); conditions: human liver microsomes; cited from earlier work
T1 construct: was investigated using human liver microsomes; from tissue; host or cells: human liver microsomes
T1 sequence (P05177 1-516): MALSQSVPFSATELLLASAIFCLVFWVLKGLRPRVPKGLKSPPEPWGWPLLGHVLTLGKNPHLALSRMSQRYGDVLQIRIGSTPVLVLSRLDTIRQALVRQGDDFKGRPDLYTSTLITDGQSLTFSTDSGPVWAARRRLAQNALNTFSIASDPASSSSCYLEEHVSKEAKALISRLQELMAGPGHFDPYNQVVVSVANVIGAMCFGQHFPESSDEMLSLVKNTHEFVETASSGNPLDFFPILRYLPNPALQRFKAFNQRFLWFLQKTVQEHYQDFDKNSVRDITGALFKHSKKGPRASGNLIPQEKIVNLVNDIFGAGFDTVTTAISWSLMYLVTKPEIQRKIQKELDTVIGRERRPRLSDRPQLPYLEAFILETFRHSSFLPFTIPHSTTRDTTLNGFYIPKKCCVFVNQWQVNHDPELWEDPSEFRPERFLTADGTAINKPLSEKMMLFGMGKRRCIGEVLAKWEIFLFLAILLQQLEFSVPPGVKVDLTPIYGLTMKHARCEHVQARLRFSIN

## CN1CCN(c2ccc(OC(F)(F)F)c(Nc3ncc4c(n3)-c3c(c(C(N)=O)nn3CCO)CC4)c2)CC1 [Onvansertib, 1-(2-hydroxyethyl)-8-{[5-(4-methylpiperazin-1-yl)-2-(trifluoromethoxy)phenyl]amino}-4,5-dihydro-1H-pyrazolo[4,3-h]quinazoline-3-carboxamide]
[1]
  best observed treatment response: stable disease
[2]; 7 PDXs sensitive to cetuximab
  models with tumor stasis or regression: five
[2]; PDX models sensitive to cetuximab, 71%
  models with potent antitumor activity: 5/7
[2]; all 20 models
  models with tumor regression (TVC less than 0%): 11 models
  models with tumor stasis (TVC between 0 and 20%): 3 models
[3]; doses of 6, 12, and 24 mg/m^2/day, oral, 5 consecutive days every 3 weeks
  DLTs: No DLTs
[3]; phase I, patients with advanced/metastatic solid tumors
  primary dose-limiting toxicities / primary toxicities: neutropenia and thrombocytopenia; also recorded: thrombocytopenia and neutropenia
[3]; reversible toxicities
  recovery time of hematologic toxicities: ≤ 3 weeks
CYP1A2
  inhibitory effect against CYP1A2: No significant inhibitory effects
